Data set [1] has as its target T1, S. aureus DNA gyrase (Staphylococcus aureus, UniProt P20831).
T1 construct: purchased Inspiralis (Norwich, UK)
Briefly: Gyrase Supercoiling High Throughput Plate Assay (fluorescence), S. aureus. The class given is biochemical. Conditions: fluorescence-based high throughput plate assay. How it is done: A Gyrase Supercoiling High Throughput Plate Assay kit, purchased from Inspiralis (Norwich. UK), was used to determine IC50 values of compounds on S. aureus and E. coli gyrase. […] Biotinylated oligonucleotide in wash buffer was immobilized onto the wells, and the excess oligonucleotide was washed off with wash buffer and ultrapure water. […] The reactions were stopped by adding the TF buffer (50 mM NaOAc (pH 4.7), 50 mM NaCl, and 50 mM MgCl2) to allow the triplex formation (biotin–oligonucleotide–plasmid) for an additional 30 min. Afterward, the unbound plasmid was washed off using TF buffer, and the solution of Promega Diamond dye in T10 buffer (10 mM Tris-HCl (pH 8.0), 1 mM EDTA) was added. […] Preliminary screening was performed at four inhibitor concentrations of 100, 10, 1, and 0.1 μM. […] IC50 was calculated using nonlinear regression-based fitting of inhibition curves using log [inhibitor] versus response-variable slope (four parameters)—symmetrical equation in the GraphPad Prism 6.0 software (GraphPad Software, La Jolla, CA, USA, www.graphpad.com). IC50 values represent the mean of two to four independent measurements.
Target sequence in this assay (P20831 whole entry): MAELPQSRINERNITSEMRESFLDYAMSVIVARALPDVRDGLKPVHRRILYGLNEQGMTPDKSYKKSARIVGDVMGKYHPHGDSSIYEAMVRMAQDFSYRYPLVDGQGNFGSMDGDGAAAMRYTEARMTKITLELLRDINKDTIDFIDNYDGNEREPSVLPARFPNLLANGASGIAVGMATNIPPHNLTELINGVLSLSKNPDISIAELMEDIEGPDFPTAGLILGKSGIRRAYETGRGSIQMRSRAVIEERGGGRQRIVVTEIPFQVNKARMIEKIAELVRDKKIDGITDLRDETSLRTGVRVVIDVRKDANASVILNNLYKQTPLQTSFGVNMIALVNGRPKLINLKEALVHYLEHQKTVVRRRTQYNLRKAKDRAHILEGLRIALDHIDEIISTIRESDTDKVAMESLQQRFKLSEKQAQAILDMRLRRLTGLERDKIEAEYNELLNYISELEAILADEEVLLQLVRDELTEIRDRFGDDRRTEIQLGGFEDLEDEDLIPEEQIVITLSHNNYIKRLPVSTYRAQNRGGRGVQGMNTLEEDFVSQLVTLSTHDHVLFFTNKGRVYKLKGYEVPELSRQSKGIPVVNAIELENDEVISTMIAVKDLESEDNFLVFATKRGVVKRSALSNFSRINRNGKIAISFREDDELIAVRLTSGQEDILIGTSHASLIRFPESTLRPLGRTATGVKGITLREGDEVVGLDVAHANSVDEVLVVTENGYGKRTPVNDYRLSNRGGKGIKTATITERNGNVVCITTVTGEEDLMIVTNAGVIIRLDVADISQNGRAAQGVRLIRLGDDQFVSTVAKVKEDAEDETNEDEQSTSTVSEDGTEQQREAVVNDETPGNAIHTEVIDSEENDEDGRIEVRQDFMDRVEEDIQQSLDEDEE
Target sequence in this assay (P0A0K8 whole entry partner): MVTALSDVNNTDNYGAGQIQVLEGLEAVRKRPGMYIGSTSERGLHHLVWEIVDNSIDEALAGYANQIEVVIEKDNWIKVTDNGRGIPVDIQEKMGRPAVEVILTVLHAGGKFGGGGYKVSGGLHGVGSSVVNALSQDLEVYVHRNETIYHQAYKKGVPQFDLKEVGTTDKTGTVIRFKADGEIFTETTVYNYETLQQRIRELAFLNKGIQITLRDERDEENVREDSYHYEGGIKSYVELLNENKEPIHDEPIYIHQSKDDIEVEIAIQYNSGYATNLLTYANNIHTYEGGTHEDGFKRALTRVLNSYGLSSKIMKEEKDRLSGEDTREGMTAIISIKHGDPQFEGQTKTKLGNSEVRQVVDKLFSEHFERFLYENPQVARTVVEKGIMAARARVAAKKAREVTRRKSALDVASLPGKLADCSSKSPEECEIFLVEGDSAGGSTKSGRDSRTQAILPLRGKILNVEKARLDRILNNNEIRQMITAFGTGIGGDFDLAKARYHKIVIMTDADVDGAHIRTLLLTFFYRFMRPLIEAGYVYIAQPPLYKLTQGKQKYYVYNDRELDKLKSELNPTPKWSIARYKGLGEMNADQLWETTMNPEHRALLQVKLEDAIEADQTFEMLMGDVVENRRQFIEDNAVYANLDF

Another data set has as its system HepG2. As to the kind of experiment: Metabolic activity assessment (CellTiter 96 Aqueous One), HepG2. The format is cell-based. To be noted: Homo sapiens, 72 h treatment, mean ± SD. How it is done:
(§1) Supplementary Table 7. Results of cytotoxicity studies.
(§2) Metabolic activity assessment
(§3) Cells of the HepG2 line ( ATCC® HB-8065™) and HUVEC ( ATCC® CRL-1730™) were cultured in Dulbecco’s Modified Eagle Medium (DMEM; Sigma-Aldrich, St. Louis, MO, USA) supplemented with 10% heat -deactivated FBS (Gibco, Grand Island/NY, USA), 2 mM L -glutamine, 100 U/mL penicillin, 100 µg/mL streptomycin (all from Sigma -Aldrich) in a humidified chamber at 37 °C and 5% CO2. The experiments were carried out on passages 7 - 9 for both cell lines. The tested compounds were dissolved in DMSO and further diluted in culture medium to a desired final concentration. […]
(§4) 10^4 cells/mL (100 µL/well) and after attachm ent treated with seven different concentration of the selected compounds or corresponding vehicle as control. The metabolic activity was assessed after 72 h treatment using the CellTiter 96 Aqueous One Solution Cell Proliferation Assay (Promega, Madison/WI, USA), in accordance with the manufacturer’s instructions .7 The absorbance was measured at 492 nm on an automated microplate reader BioTek Synergy HT (BioTek Instruments, Inc.). Data are presented as IC 50 value (mean ± SD) from two independent experiments , each conducted in duplicate or triplicate. IC 50 values were calculated by a non -linear regression model using Graph Pad Prism 7 software. […]

Another data set addresses T2, hERG potassium channel (Homo sapiens, UniProt Q12809).
T2 construct: purchased Invitrogen (kit); assay run at TCG Lifesciences Pvt; Ltd. India
As to the kind of experiment: FP-based hERG binding assay (Invitrogen kit). How it is done:
Supplementary Table 7. Results of cytotoxicity studies. […]
Cardiovascular hERG inhibition
Cardiovascular safety profile was entirely outsourced. hERG screening was performed at TCG
Lifesciences Pvt. Ltd. India with FP -based hERG binding assay (Invitrogen kit).
Background: The hERG channel carries a current that helps repolarise heart muscle cells.

The subject of another data set is HUVEC. As to the kind of experiment: Metabolic activity assessment (CellTiter 96 Aqueous One), HUVEC. The format is cell-based. To be noted: Homo sapiens, 72 h treatment, mean ± SD. How it is done: as §1, §2, §3, §4
Data set [2] concerns the target T1, S. aureus DNA gyrase. As to the kind of experiment: Gel-based S. aureus Gyrase Supercoiling assay (Inspiralis). The format is biochemical. How it is done:
gyrase supercoiling assays
In all experiments, the activity of the enzyme was determined prior to the testing of the compounds and 1 U defined as the amount of enzyme required to fully supercoil the substrate. This amount of enzyme was used in all subsequent assays. The final DMSO concentration in all the reactions was 1% (v/v). Compounds were serially diluted in DMSO and added to the reaction before the addition of the […]
Staphylococcus aureus gyrase supercoiling assay
1 U of DNA gyrase was incubated with 0.5 μg of relaxed pBR322 DNA in a 30 μl reaction at 37 °C for 30 min under the following conditions: 40 mM HEPES·KOH (pH 7.6), 10 mM magnesium acetate, 10 mM DTT, 2 mM ATP, 500 mM potassium glutamate and 0.05 mg/ml BSA. Each reaction was stopped by the addition of 30 μl chloroform/iso-amyl alcohol (24:1) and 20 μl Stop Dye (40% sucrose, 100 mM Tris.HCl ( pH 7.5), 10 mM EDTA, 0.5 μg/ml bromophenol blue), before being loaded on a 1.0% TAE (Tris.acetate […], EDTA […]). Gels run at 70V for 3 hours.
Data acquisition and analysis
Bands were visualised by ethidium staining for 10 min, destained for 10 min in water and bands were analysed by gel documentation equipment (Syngene, Cambridge, UK) and quantitated using Syngene Gene Tools software. Raw gel data (fluorescent band volumes) collected from Syngene, GeneTools gel analysis software were converted to a % of the 100% control (the fully supercoiled or relaxed […]
global curve fit non-linear regression tool was used to calculate IC50 data using the following equation:
Equation: Exponential Decay, Single, 2 Parameter f = ae−bx
(1 picture or pasted object on this page, not shown here)
Target sequence in this assay (P20831 whole entry): as the sequence (P20831 whole entry) above
Target sequence in this assay (P0A0K8 whole entry, further chain): as the sequence (P0A0K8 whole entry partner) above

For the next data set, the system named is MRSA (NCTC12493). As to the kind of experiment: Broth microdilution MIC, MRSA. The format is cell-based, S. aureus. Conditions: Staphylococcus aureus, 20 h, 37 °C. How it is done: (§5) Antimicrobial assays were performed by the broth microdilution method in 96-well plate format according to the Clinical and Laboratory Standards Institute guidelines[46] and European Committee on Antimicrobial Susceptibility Testing recommendations. First, bacterial suspensions of specific bacterial strains was prepared to obtain density equivalent to 0.5 McFarland turbidity standard, followed by dilution with cation-adjusted Mueller Hinton broth with TES (Thermo Fisher Scientific), to obtain a final inoculum of 10^5 colony-forming units/mL. Compounds were dissolved in DMSO and twofold dilutions were prepared, then inoculum was added and the mixture was incubated for 20 h at 37 °C. After incubation, the MIC values were read off by visual assessment as the lowest dilution of compound showing no turbidity. The MICs were determined against S. aureus (ATCC 29213), MRSA (NCTC12493), E. coli (ATCC 25922), E. coli D22, and E. coli N43 bacterial strains. Tetracycline was used as a positive control on every assay plate, displaying MICs of 0.5 and 1 μg/mL for S. aureus and E. coli, respectively.
(In general: In broth dilution the organism is exposed to a series of concentrations in liquid medium.)

A further data set has as its system S. aureus (ATCC 29213). Briefly: Broth microdilution MIC, S. aureus. The class given is cell-based. Conditions: Staphylococcus aureus, ATCC29213, 20 h, 37 °C. How it is done: as §5
The subject of another data set is E. coli (ATCC 25922). Briefly: Broth microdilution MIC, E. coli. The format is cell-based. To be noted: Escherichia coli, ATCC25922, 20 h, 37 °C. How it is done: as §5

In brackets after ≈: the same amount, converted by molar mass. Like-named read-outs stand apart in the source and are kept apart here. Some results are limits rather than exact numbers.

T2 sequence (Q12809 whole entry): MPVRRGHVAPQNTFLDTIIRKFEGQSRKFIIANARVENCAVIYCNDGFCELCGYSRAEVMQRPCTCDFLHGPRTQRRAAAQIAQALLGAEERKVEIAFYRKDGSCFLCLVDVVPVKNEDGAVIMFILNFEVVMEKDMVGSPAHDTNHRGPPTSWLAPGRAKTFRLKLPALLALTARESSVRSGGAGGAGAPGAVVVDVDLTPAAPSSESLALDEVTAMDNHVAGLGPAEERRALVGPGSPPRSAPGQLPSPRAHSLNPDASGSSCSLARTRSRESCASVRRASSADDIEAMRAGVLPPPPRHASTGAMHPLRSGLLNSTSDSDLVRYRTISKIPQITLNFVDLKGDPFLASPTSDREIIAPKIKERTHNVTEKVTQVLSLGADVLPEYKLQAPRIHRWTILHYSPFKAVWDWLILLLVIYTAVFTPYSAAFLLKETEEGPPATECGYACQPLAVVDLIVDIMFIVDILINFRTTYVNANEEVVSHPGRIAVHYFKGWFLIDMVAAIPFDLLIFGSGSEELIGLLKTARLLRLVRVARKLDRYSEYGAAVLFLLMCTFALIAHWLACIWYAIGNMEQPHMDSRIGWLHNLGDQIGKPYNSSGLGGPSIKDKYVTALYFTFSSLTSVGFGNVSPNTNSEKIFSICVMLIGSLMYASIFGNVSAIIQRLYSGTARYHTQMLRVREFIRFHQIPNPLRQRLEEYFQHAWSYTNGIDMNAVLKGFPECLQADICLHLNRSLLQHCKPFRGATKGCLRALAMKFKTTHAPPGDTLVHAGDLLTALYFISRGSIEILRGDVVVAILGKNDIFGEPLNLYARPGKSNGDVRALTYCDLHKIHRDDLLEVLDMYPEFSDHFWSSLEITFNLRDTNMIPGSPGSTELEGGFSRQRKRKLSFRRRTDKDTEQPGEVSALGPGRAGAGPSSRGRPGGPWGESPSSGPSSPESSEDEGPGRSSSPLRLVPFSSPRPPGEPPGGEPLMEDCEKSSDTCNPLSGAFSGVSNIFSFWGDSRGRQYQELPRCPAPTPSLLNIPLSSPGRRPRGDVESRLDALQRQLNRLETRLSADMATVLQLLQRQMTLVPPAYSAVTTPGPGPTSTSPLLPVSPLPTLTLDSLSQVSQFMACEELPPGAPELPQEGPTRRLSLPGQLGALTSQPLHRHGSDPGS

In the case of `COc1ccc2nccc(CCN3CCC(NCc4ccccc4)CC3)c2n1` [Compound 2], the IC50 against S. aureus DNA gyrase [1] turned out to be 1020 nM; in the data set with HepG2, 17.7 ± 2.16 µM; at hERG potassium channel, 1050 nM; with HUVEC it was 54.1 ± 3.45 µM.

Consider `COc1ccc2nccc(CCN3CCC(NCc4ccc(F)cc4)CC3)c2n1` [Compound 3], for which the IC50 was 550 nM at S. aureus DNA gyrase [1], 12.7 ± 0.21 µM with HepG2, 590 nM on hERG potassium channel and more than 50 µM in the data set with HUVEC.

With `COc1ccc2nccc(CCN3CCC(NCc4ccc(Cl)cc4)CC3)c2n1` [Compound 4], the 50% inhibitory concentration (IC50) with HepG2 was determined as 10.16 ± 0.1 µM; at hERG potassium channel, 270 nM; in the data set with HUVEC, 27 ± 0.38 µM.

As for `COc1ccc2nccc(CCN3CCC(NCc4ccc(Br)cc4)CC3)c2n1` [Compound 5], the 50% inhibitory concentration (IC50) in the data set on HepG2 was determined as 9.37 ± 0.07 µM; on hERG potassium channel it was 290 nM; in the data set with HUVEC, 25.42 ± 0.01 µM; against S. aureus DNA gyrase [2] (IC50 S. aureus DNA gyrase supercoiling, gel-based assay), 7 nM; against S. aureus DNA gyrase [2] (S. aureus gyrase supercoiling IC50 Assay 1, gel-based assay, assay 1), 7 nM; against S. aureus DNA gyrase [2] (S. aureus gyrase supercoiling IC50 Assay 2, gel-based assay, assay 2), 7 nM. The IC50 at S. aureus DNA gyrase [2] (S. aureus gyrase supercoiling IC50 Average, gel-based assay, average of assay 1 and 2) amounted to 7 nM; at S. aureus DNA gyrase [2] (S. aureus inhibition (DNA supercoiling IC50), as quoted in point-by-point response), 7 nM; against S. aureus DNA gyrase [2] (S. aureus inhibition (DNA supercoiling IC50), as quoted in reviewer report), 7 nM.

Turning to `COc1ccc2nccc(CCN3CCC(NCc4ccc(I)cc4)CC3)c2n1` [Compound 6], the concentration for half-maximal inhibition (IC50) came out at 8.47 ± 0.09 µM in the data set on HepG2; 180 nM on hERG potassium channel (human, FP-based hERG binding assay kit (Invitrogen)); 19 ± 0.85 µM with HUVEC; 13 nM at S. aureus DNA gyrase [2] (read-out: S. aureus gyrase supercoiling IC50 Assay 1, gel-based assay, assay 1); 9 nM at S. aureus DNA gyrase [2] (read-out: S. aureus gyrase supercoiling IC50 Assay 2, gel-based assay, assay 2).

As to `COc1ccc2nccc(CCN3CCC(NCc4ccc(C(N)=O)cc4)CC3)c2n1` [Compound 8], the half-inhibitory concentration (IC50) on hERG potassium channel was 13400 nM; in the data set on HUVEC it was more than 50 µM.

Take `COc1ccc2nccc(CCN3CCC(NCc4ccc(N(C)C)cc4)CC3)c2n1` [Compound 9]: the half-maximal inhibitory concentration (IC50) against S. aureus DNA gyrase [1] amounted to 67 nM; with HepG2, 10.03 ± 0.06 µM; at hERG potassium channel, 2110 nM; in the data set on HUVEC it was 23.85 ± 0.09 µM. In addition, the minimum inhibitory concentration (MIC) was 0.25 µg/mL (≈ 0.596 µM) against MRSA (NCTC12493) and 0.125 µg/mL (≈ 0.298 µM) in the data set on S. aureus (ATCC 29213).

Consider `CN(C)[C@@H]1C(O)=C(C(N)=O)C(=O)[C@@]2(O)C(O)=C3C(=O)c4c(O)cccc4[C@@](C)(O)[C@H]3C[C@@H]12` [Tetracycline, reference compound], for which the figures for the minimum inhibitory concentration (MIC) in the data set on E. coli (ATCC 25922) and in the data set with S. aureus (ATCC 29213) were 1 µg/mL (≈ 2.25 µM) and 0.5 µg/mL (≈ 1.13 µM), respectively.

Broadly, the IC50 is the concentration at which inhibition is half-maximal. A word on the MIC: it is the lowest concentration found to suppress growth. Low readings indicate inhibition by little substance, high ones a need for much substance.

Source of the values: paper PMC7794245, “Potent DNA gyrase inhibitors bind asymmetrically to their target using symmetrical bifurcated halogen bonds” (Nature Communications, 2021).
